Reference: ChEMBL document CHEMBL3632488, “Discovery of potent and selective cytotoxic activity of new quinazoline-ureas against TMZ-resistant glioblastoma multiforme (GBM)” (Eur J Med Chem, 2015)
pIC50: −log10 of the molar value. Activity calls are given as the source filed them. No cut-off for these calls is given here.

What was measured:
GBM2 [1] = assay: Induction of apoptosis in human GBM2 cells assessed as loss of mitochondrial membrane potential in presence of cyclosporine A at 10 uM after 2 hrs by JC-1 staining based fluorescence microscopy; type: functional, cell-based
[2] = Selectivity index, ratio of IC50 for normal human astrocytes to IC50 for human GBM2 cells
[3] = Antiproliferative activity against human GBM1 cells assessed as reduction in cell viability at 10 uM incubated for 72 hrs by WST-1 method; type: functional; settings: GBM1, 72 h
GBM2 [4] = assay: Induction of apoptosis in human GBM2 cells assessed as loss of mitochondrial membrane potential at 10 uM after 2 hrs by JC-1 staining based fluorescence microscopy; type: functional, cell-based
GBM [5] = assay: Tumoricidal effect in patient derived GBM 025T cells assessed as reduction in neurosphere formation at 0.1 uM after 1 to 2 weeks by 3D tumor clonogenic assay; type: functional, cell-based; settings: Homo sapiens
GBM1 = assay: Induction of apoptosis in human GBM1 cells assessed as loss of mitochondrial membrane potential at 10 uM after 2 hrs by JC-1 staining based fluorescence microscopy; type: functional, cell-based
GBM2 [6] = assay: Induction of apoptosis in human GBM2 cells assessed as loss of mitochondrial membrane potential in presence of PK11195 at 10 uM after 2 hrs by JC-1 staining based fluorescence microscopy; type: functional, cell-based
[7] = target: Translocator protein (Rattus norvegicus) (UniProt P16257); assay: Displacement of [3H]PK11195 from TSPO receptor in Sprague-Dawley rat cerebral cortex membrane at 10 uM by radiometric competitive assay; type: tissue-based
[8] = Selectivity index, ratio of IC50 for normal human astrocytes to IC50 for human GBM1 cells
[9] = Antiproliferative activity against human GBM1 cells assessed as reduction in cell viability incubated for 72 hrs by WST-1 method; type: functional, cell-based; settings: GBM1, 72 h
[10] = target: Translocator protein (Rattus norvegicus) (UniProt P16257); assay: Displacement of [3H]PK11195 from TSPO receptor in Sprague-Dawley rat cerebral cortex membrane at 1 uM by radiometric competitive assay; type: tissue-based
[11] = target: Voltage-gated inwardly rectifying potassium channel KCNH2 (Homo sapiens, UniProt Q12809); assay: Displacement of [3H]astemizole from human ERG potassium channel expressed in HEK293 cell membrane after 1 hr; type: cell membranes
[12] = Cytotoxicity against normal human astrocytes assessed as cell viability incubated for 72 hrs by WST-1 method; type: cell-based; settings: Astrocyte
Cytochrome P450 2C9 = Cytochrome P450 2C9 (Homo sapiens, UniProt P11712); assay: Inhibition of CYP2C9 (unknown origin) using luciferin tagged substrate preincubated for 10 mins before substrate addition; type: ADME
GBM [13] = assay: Tumoricidal effect in patient derived GBM 448T cells assessed as reduction in neurosphere formation at 0.1 uM after 1 to 2 weeks by 3D tumor clonogenic assay; type: functional, cell-based; settings: Homo sapiens
GBM [14] = assay: Tumoricidal effect in patient derived GBM 464T cells assessed as reduction in neurosphere formation at 0.1 uM after 1 to 2 weeks by 3D tumor clonogenic assay; type: functional, cell-based; settings: Homo sapiens
[15] = Antiproliferative activity against human GBM2 cells assessed as reduction in cell viability incubated for 72 hrs by WST-1 method; type: functional, cell-based; settings: GBM2, 72 h
[16] = target: Translocator protein (Rattus norvegicus) (UniProt P16257); assay: Displacement of [3H]PK11195 from TSPO receptor in Sprague-Dawley rat cerebral cortex membrane at 100 nM by radiometric competitive assay; type: tissue-based
Cytochrome P450 1A2 = target: T1, Cytochrome P450 1A2 (Homo sapiens, UniProt P05177); assay: Inhibition of CYP1A2 (unknown origin) using luciferin tagged substrate preincubated for 10 mins before substrate addition; type: ADME
T1 sequence (P05177 whole entry): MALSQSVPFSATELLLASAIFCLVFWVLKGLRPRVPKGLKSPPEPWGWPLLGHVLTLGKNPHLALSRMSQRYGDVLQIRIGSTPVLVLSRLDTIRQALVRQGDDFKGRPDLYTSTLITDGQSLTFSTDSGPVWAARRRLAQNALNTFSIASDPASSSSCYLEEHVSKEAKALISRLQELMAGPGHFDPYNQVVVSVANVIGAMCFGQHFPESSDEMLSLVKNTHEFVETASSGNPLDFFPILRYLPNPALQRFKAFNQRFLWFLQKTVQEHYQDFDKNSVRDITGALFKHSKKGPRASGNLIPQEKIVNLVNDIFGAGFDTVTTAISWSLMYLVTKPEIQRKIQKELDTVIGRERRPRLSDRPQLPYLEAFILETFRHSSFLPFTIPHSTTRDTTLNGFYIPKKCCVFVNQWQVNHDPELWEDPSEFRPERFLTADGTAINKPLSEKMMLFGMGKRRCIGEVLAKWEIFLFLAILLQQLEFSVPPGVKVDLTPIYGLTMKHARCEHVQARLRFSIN

GBM [17] = assay: Tumoricidal effect in patient derived GBM 096T cells assessed as reduction in neurosphere formation at 0.5 uM after 1 to 2 weeks by 3D tumor clonogenic assay; type: functional, cell-based; settings: Homo sapiens
GBM [18] = assay: Tumoricidal effect in patient derived GBM 448T cells assessed as reduction in neurosphere formation at 0.5 uM after 1 to 2 weeks by 3D tumor clonogenic assay; type: functional, cell-based; settings: Homo sapiens
[19] = Antiproliferative activity against human GBM2 cells assessed as reduction in cell viability at 10 uM incubated for 72 hrs by WST-1 method; type: functional; settings: GBM2, 72 h
Cytochrome P450 3A4 = Cytochrome P450 3A4 (Homo sapiens, UniProt P08684); assay: Inhibition of CYP3A4 (unknown origin) using luciferin tagged substrate preincubated for 10 mins before substrate addition; type: ADME
[20] = Antiproliferative activity against human GBM3 cells assessed as reduction in cell viability incubated for 72 hrs by WST-1 method; type: functional, cell-based; settings: GBM3, 72 h
Cytochrome P450 2C19 = Cytochrome P450 2C19 (Homo sapiens, UniProt P33261); assay: Inhibition of CYP2C19 (unknown origin) using luciferin tagged substrate preincubated for 10 mins before substrate addition; type: ADME
[21] = Selectivity index, ratio of IC50 for normal human astrocytes to IC50 for human GBM3 cells
GBM [22] = assay: Tumoricidal effect in patient derived GBM 096T cells assessed as reduction in neurosphere formation at 0.1 uM after 1 to 2 weeks by 3D tumor clonogenic assay; type: functional, cell-based; settings: Homo sapiens
GBM [23] = assay: Tumoricidal effect in patient derived GBM 047T cells assessed as reduction in neurosphere formation at 0.5 uM after 1 to 2 weeks by 3D tumor clonogenic assay; type: functional, cell-based; settings: Homo sapiens
GBM2 [24] = assay: Induction of apoptosis in human GBM2 cells assessed as loss of mitochondrial membrane potential in presence of BAPTA at 10 uM after 2 hrs by JC-1 staining based fluorescence microscopy; type: functional, cell-based
GBM [25] = assay: Tumoricidal effect in patient derived GBM 464T cells assessed as reduction in neurosphere formation at 0.5 uM after 1 to 2 weeks by 3D tumor clonogenic assay; type: functional, cell-based; settings: Homo sapiens
Translocator protein = Translocator protein (Rattus norvegicus, UniProt P16257); assay: Displacement of [3H]PK11195 from TSPO receptor in Sprague-Dawley rat cerebral cortex membrane by radiometric competitive assay; type: tissue-based
GBM [26] = assay: Tumoricidal effect in patient derived GBM 047T cells assessed as reduction in neurosphere formation at 0.1 uM after 1 to 2 weeks by 3D tumor clonogenic assay; type: functional, cell-based; settings: Homo sapiens
[27] = target: Translocator protein (Rattus norvegicus) (UniProt P16257); assay: Displacement of [3H]PK11195 from TSPO receptor in Sprague-Dawley rat cerebral cortex membrane at 10 nM by radiometric competitive assay; type: tissue-based
Cytochrome P450 2D6 = Cytochrome P450 2D6 (Homo sapiens, UniProt P10635); assay: Inhibition of CYP2D6 (unknown origin) using luciferin tagged substrate preincubated for 10 mins before substrate addition; type: ADME
GBM [28] = assay: Tumoricidal effect in patient derived GBM 025T cells assessed as reduction in neurosphere formation at 0.5 uM after 1 to 2 weeks by 3D tumor clonogenic assay; type: functional, cell-based; settings: Homo sapiens
[29] = Antiproliferative activity against human GBM3 cells assessed as reduction in cell viability at 10 uM incubated for 72 hrs by WST-1 method; type: functional; settings: GBM3, 72 h

## O=C(Nc1cc2ncncc2cc1OCc1cccc(Cl)c1)Nc1cccc2ccccc12
GBM2 [1]
  Activity: Active
[2]
  Ratio IC50: >10.1
[3]
  inhibition at 10 µM: 100%
GBM2 [4]
  Activity: Active
GBM [5]
  Activity: Active
GBM1
  Activity: Active
GBM2 [6]
  Activity: Active
[7]
  inhibition: 85%
[8]
  Ratio IC50: >10.1
[9]
  pIC50: 5.96
[10]
  inhibition: 59%
[11]
  pIC50: < 5.00
[12]
  pIC50: < 5.00
Cytochrome P450 2C9
  pIC50: < 5.00
GBM [13]
  Activity: inactive
GBM [14]
  Activity: Active
[15]
  pIC50: 5.96
[16]
  inhibition: 15%
Cytochrome P450 1A2
  pIC50: < 5.00
GBM [17]
  Activity: Active
GBM [18]
  Activity: Active
[19]
  inhibition at 10 µM: 99.9%
Cytochrome P450 3A4
  pIC50: < 5.00
[20]
  pIC50: 6.10
Cytochrome P450 2C19
  pIC50: < 5.00
[21]
  Ratio IC50: >10.1
GBM [22]
  Activity: Active
GBM [23]
  Activity: Active
GBM2 [24]
  Activity: Active
GBM [25]
  Activity: Active
Translocator protein
  pIC50: 6.14
GBM [26]
  Activity: inactive
[27]
  inhibition: 2%
Cytochrome P450 2D6
  pIC50: 5.29
GBM [28]
  Activity: Active
[29]
  inhibition at 10 µM: 98.7%
